# From patent publication US10813894B2, “Methods of inhibiting pain” (The Regents of the University of California, priority 2015, dated 2020)
# “Also recorded” adds a separate entry of the source.
# Legend:
# [1] = biological target: T1, sEH (Homo sapiens, UniProt P34913); experiment: Inhibition of sEH, assay not specified; assay type: biochemical
# T1 sequence (P34913 1-555): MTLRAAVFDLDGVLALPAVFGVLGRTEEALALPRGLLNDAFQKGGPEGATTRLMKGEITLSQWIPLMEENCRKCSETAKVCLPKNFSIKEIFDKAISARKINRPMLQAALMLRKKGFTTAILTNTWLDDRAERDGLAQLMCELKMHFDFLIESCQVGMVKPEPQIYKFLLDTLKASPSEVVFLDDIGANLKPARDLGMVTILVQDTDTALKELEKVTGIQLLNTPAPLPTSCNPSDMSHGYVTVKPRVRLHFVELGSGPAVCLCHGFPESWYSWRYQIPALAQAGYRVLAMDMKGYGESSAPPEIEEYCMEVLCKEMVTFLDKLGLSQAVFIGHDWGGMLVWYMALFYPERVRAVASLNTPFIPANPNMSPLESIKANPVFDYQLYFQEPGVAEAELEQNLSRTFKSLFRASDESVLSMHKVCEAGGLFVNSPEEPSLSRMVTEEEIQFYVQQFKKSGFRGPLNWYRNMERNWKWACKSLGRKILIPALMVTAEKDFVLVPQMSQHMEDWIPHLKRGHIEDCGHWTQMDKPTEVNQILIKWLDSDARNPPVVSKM
# Text: “Soluble epoxide hydrolase” (“sEH”) is an epoxide hydrolase which in endothelial and smooth muscle cells converts EETs to dihydroxy derivatives called dihydroxyeicosatrienoic acids (“DHETs”). The cloning and sequence of the murine sEH is set forth in Grant et al., J. Biol. Chem. 268(23):17628-17633 (1993). The cloning, sequence, and accession numbers of the human sEH sequence are set forth in Beetham et al., Arch. Biochem. Biophys. […] The amino acid sequence of human sEH is SEQ ID NO.:1, while the nucleic acid sequence encoding the human sEH is SEQ ID NO.:2. […] Unless otherwise specified, as used herein, the terms “soluble epoxide hydrolase” and “sEH” refer to human sEH.
# Derivatives of urea are transition state mimetics that form a preferred group of sEH inhibitors. […] Any particular urea derivative or other compound can be easily tested for its ability to inhibit sEH by standard assays, such as those discussed herein. The production and testing of urea and carbamate derivatives as sEH inhibitors is set forth in detail in, for example, Morisseau et al., Proc Natl Acad Sci (USA) 96:8849-8854 (1999).
# Any of a number of standard assays for determining epoxide hydrolase activity can be used to determine inhibition of sEH. […] Suitable in vitro assays are described in Zeldin et al., J Biol. Chem. 268:6402-6407 (1993). […]
# [2] = tested on: healthy rats; experiment: Intraplantar tunicamycin (Tm) induced pain model, mechanical withdrawal; assay type: in vivo, rat
# Procedure: (§1) FIGS. 7A-F illustrate that ER stress inducer tunicamycin (Tm) is rapid, intense and selective in generating pain behavior. (A) Tm is administered into the midsection of one hind paw in a volume of 10 μL (20 μg). Mechanical withdrawal of ipsi- and contralateral paws are then monitored over a period of 6 h until the ipsilateral paw measurements returned to baseline values. The withdrawal data are presented as gram force required for inducing a withdrawal reflex response. (B) Decreasing doses of Tm generated less intense allodynia which subsided faster than the highest dose. […] (D) Intraplantar Tm induced pain is reversible with sEH inhibitor (lh prior to Tm, i.p. administration) in a dose dependent manner. (E) Expectedly this pain is reversible with chemical chaperone 4-PBA. The basis for the increase above the baseline threshold in this group is not investigated.
# [3] = tested on: healthy rats; experiment: Intraplantar Tm, thermal withdrawal threshold (modified Hargreaves' test); assay type: in vivo, rat
# Procedure: as §1
# [4] = tested on: healthy rats; experiment: von Frey mechanical withdrawal threshold in healthy rats; details: 4-PBA 40 mg/kg
# Procedure: Standard nociceptive measurements were performed in all experiments. For the von Frey test an electronic rigid tip instrument was used (IITC, Woodland Hills Calif.). For the thermal nociceptive thresholds the modified Hargreaves' method was used. The baseline withdrawal thresholds before STZ administration were taken as 100% response and all mean nociceptive thresholds were converted to percentage values. Inhibitors were administered by intraperitoneal route after completely dissolving in vehicle PEG400 (1 mL/kg).
# [5] = tested on: type I diabetic rats; experiment: STZ induced type I diabetic rat neuropathic pain model, electronic von Frey test; details: for Drug reduction index: combination of 4-PBA and TPPU, CompuSyn
# Procedure: Data are presented as mean±SEM in all subsequent figures throughout the text.
# (B) The CompuSyn software was used to construct an isobologram of the interaction. ED50 values calculated for each drug are plotted on x and y-axis respectively. […] (C) Combination index (CI) is reported as the key parameter of the synergistic interaction.
# Standard nociceptive measurements were performed in all experiments. For the von Frey test an electronic rigid tip instrument was used (IITC, Woodland Hills Calif.). […] The baseline withdrawal thresholds before STZ administration were taken as 100% response and all mean nociceptive thresholds were converted to percentage values. Inhibitors were administered by intraperitoneal route after completely dissolving in vehicle PEG400 (1 mL/kg).
# Results are depicted as mean±SEM. CompuSyn software package was used to quantify the synergy between drugs.
# [6] = tested on: healthy rats; experiment: Intraplantar dimethylcelecoxib (DMCx) induced pain model; assay type: in vivo, rat
# Procedure: FIGS. 9A-C illustrate that mechanistically different ER stress inducer dimethylcelecoxib (DMCx) generates a rapid and intense but sEHI and cox-2 inhibitor reversible pain phenotype. (A) DMCx is administered into the midsection of one hind paw in a volume of 10 μL (20 μg). Mechanical withdrawal of ipsi- and contralateral paws are then monitored over a period of 4 h. The withdrawal data are presented as gram force required for inducing a withdrawal reflex response. (B) Intraplantar DMCx induced pain is reversible with sEH inhibitor (1 h prior to Tm, i.p. administration) in a dose dependent manner.
compound,measurement,setting,value
"CCCCCCCCCCCCNC(=O)NC12CC3CC(CC(C3)C1)C2 [ADU, N-Adamantyl-N′-dodecyl urea]",Activity on sEH,[1],particularly high activity
tunicamycin [Tm],Induction of pain by intraplantar administration,[2]; hind paw of healthy rats,induce a significant degree of pain
same,Swelling after intraplantar administration,[2]; intraplantar Tm,Minimal amount of swelling
same,Mechanical withdrawal threshold after Tm,"[2]; intraplantar, 20 μg, ipsilateral paw",25 % of the baseline levels
same,Heat responses / thermal withdrawal threshold of the ipsilateral paw,[3],rapid and sustained loss of heat responses; also recorded: notable increase in thermal withdrawal threshold
"O=C(O)CCCc1ccccc1 [Compound 4-PBA, 4-phenyl butyric acid]",Reversal of Tm induced sensitivity to mechanical stimuli,"[2]; pre-administration i.p. 1 h prior to Tm, celecoxib 30 mg/kg",reversed; also recorded: reversible
same,Acute mechanical withdrawal threshold in healthy rats,[4],not antinociceptive; also recorded: does not result in change of acute mechanical withdrawal threshold
same,Drug reduction index,[5]; at ED50,2.2 fold
same,Drug reduction index,[5]; at ED97,3.9 fold
same,Allodynia / antinociception (von Frey withdrawal threshold),"[5]; diabetic rats, i.p., 4-PBA 10-100 mg/kg, TPPU 0.01-1 mg/kg",dose and time dependent antinociception occurs within minutes; also recorded: reduce allodynia in a dose and time dependent manner
same,Antinociceptive efficacy at the highest dose,"[5]; diabetic rats, systemic delivery, highest dose",full efficacy and rapid onset
same,Effect on pain-related behavior at 10 mg/kg,"[5]; type I diabetic rats, 10 mg/kg, 6 h time period",ineffective
"Cc1ccc(C)c(-c2cc(C(F)(F)F)nn2-c2ccc(S(N)(=O)=O)cc2)c1 [DMCx, dimethyl-celecoxib]",Swelling after intraplantar administration,[6],Swelling of the ipsilateral paw
